Laboratory results as given in patent EP4617278A1, “NUCLEOTIDE ANALOG, AND COMPOSITION AND USE THEREOF” (priority 2022, dated 2024).

System: RSV A2 virus
Assay: RSV CPE assay
Details: human respiratory syncytial virus, HEp-2, 120 h, read-out: RSV A2 (Hep-2 cell) EC50

`CC(C)C(=O)OCOP(=O)(OC[C@H]1O[C@@](C#N)(c2ccc3c(N)ncnn23)[C@H](OC(=O)C(C)C)[C@@H]1OC(=O)C(C)C)Oc1ccc(C(C)(C)C)cc1` (mixture of isomers) [Compound 26, (2R,3R,4R,5R)-2-(4-aminopyrrolo[2,1-f][1,2,4]triazin-7-yl)-5-((((4-tert-butylphenoxy)((isobutyryloxy)methoxy)phosphoryl)oxy)methyl)-2-cyanotetrahydrofuran-3,4-diyl bis(2-methylpropionate)] was tested. Which EC50 did it give?
Its EC50 is > 1000 nM.

`CC(C)C(=O)O[C@H]1[C@@H](OC(=O)C(C)C)[C@](C#N)(c2ccc3c(N)ncnn23)O[C@@H]1COP(=O)(OCCSC(=O)C(C)(C)C)Oc1ccc(C(C)(C)C)cc1` (mixture of isomers) [Compound 27, (2R,3R,4R,5R)-2-(4-aminopyrrolo[2,1-f][1,2,4]triazin-7-yl)-5-((((4-tert-butylphenoxy)(2-(pivaloylthio)ethoxy)phosphoryl)oxy)methyl)-2-cyanotetrahydrofuran-3,4-diyl bis(2-methylpropionate)] was tested. Which EC50 did it give?
The EC50 was 200 to 500 nM.

`CC(C)OC(=O)OCO[P@@](=O)(N[C@@H](C)C(=O)OC(C)C)OC[C@H]1O[C@@](C#N)(c2ccc3c(N)ncnn23)[C@H](OC(=O)C(C)C)[C@@H]1OC(=O)C(C)C` [Compound 3a, (2R,3R,4R,5R)-2-(4-aminopyrrolo[2,1-f][1,2,4]triazin-7-yl)-2-cyano-5-((((R)-(((S)-1-isopropoxy-1-oxopropan-2-yl)amino)(((isopropoxycarbonyl)oxy)methoxy)phosphoryl)oxy)methyl)tetrahydrofuran-3,4-diyl bis(2-methylpropionate)] was tested. Which EC50 did it give?
Its EC50 is 200 to 500 nM.

For `CC(C)OC(=O)OCO[P@](=O)(N[C@@H](C)C(=O)OC(C)C)OC[C@H]1O[C@@](C#N)(c2ccc3c(N)ncnn23)[C@H](OC(=O)C(C)C)[C@@H]1OC(=O)C(C)C` [Compound 3b, (2R,3R,4R,5R)-2-(4-aminopyrrolo[2,1-f][1,2,4]triazin-7-yl)-2-cyano-5-((((S)-(((S)-1-isopropoxy-1-oxopropan-2-yl)amino)(((isopropoxycarbonyl)oxy)methoxy)phosphoryl)oxy)methyl)tetrahydrofuran-3,4-diyl bis(2-methylpropionate)], which EC50 is on record?
The EC50 was 100 to 200 nM.

With `CCC(CC)COC(=O)[C@H](C)N[P@](=O)(OCOC(=O)OC(C)C)OC[C@H]1O[C@@](C#N)(c2ccc3c(N)ncnn23)[C@H](OC(=O)C(C)C)[C@@H]1OC(=O)C(C)C` [Compound 7a, (2R,3R,4R,5R)-2-(4-aminopyrrolo[2,1-f][1,2,4]triazin-7-yl)-2-cyano-5-((((R)-(((S)-1-(2-ethylbutoxy)-1-oxopropan-2-yl)amino)(((isopropoxycarbonyl)oxy)methoxy)phosphoryl)oxy)methyl)tetrahydrofuran-3,4-diyl bis(2-methylpropionate)] as the compound, how does the EC50 read?
The EC50 was 200 to 500 nM.

`CCC(CC)COC(=O)[C@H](C)N[P@@](=O)(OCOC(=O)OC(C)C)OC[C@H]1O[C@@](C#N)(c2ccc3c(N)ncnn23)[C@H](OC(=O)C(C)C)[C@@H]1OC(=O)C(C)C` [Compound 7b, (2R,3R,4R,5R)-2-(4-aminopyrrolo[2,1-f][1,2,4]triazin-7-yl)-2-cyano-5-((((S)-(((S)-1-(2-ethylbutoxy)-1-oxopropan-2-yl)amino)(((isopropoxycarbonyl)oxy)methoxy)phosphoryl)oxy)methyl)tetrahydrofuran-3,4-diyl bis(2-methylpropionate)] was tested. Which EC50 did it give?
Its EC50 is 100 to 200 nM.

`CCC(CC)COC(=O)[C@H](C)N[P@@](=O)(OCOC(=O)C(C)(C)C)OC[C@H]1O[C@@](C#N)(c2ccc3c(N)ncnn23)[C@H](OC(=O)C(C)C)[C@@H]1OC(=O)C(C)C` [Compound 11b, (2R,3R,4R,5R)-2-(4-aminopyrrolo[2,1-f][1,2,4]triazin-7-yl)-2-cyano-5-((((S)-(((S)-1-(2-ethylbutoxy)-1-oxopropan-2-yl)amino)((pivaloyloxy)methoxy)phosphoryl)oxy)methyl)tetrahydrofuran-3,4-diyl bis(2-methylpropionate)] was tested. Which EC50 did it give?
The EC50 was 200 to 500 nM.

With `CC(C)OC(=O)OCO[P@](=O)(N[C@@H](C)C(=O)OC1CCC1)OC[C@H]1O[C@@](C#N)(c2ccc3c(N)ncnn23)[C@H](OC(=O)C(C)C)[C@@H]1OC(=O)C(C)C` [Compound 13b, (2R,3R,4R,5R)-2-(4-aminopyrrolo[2,1-f][1,2,4]triazin-7-yl)-2-cyano-5-((((S)-(((S)-1-cyclobutoxy-1-oxopropan-2-yl)amino)(((isopropoxycarbonyl)oxy)methoxy)phosphoryl)oxy)methyl)tetrahydrofuran-3,4-diyl bis(2-methylpropionate)] as the compound, how does the EC50 read?
The EC50 was 200 to 500 nM.

Which EC50 does the source give for `CC(=O)O[C@H]1[C@@H](OC(C)=O)[C@](C#N)(c2ccc3c(N)ncnn23)O[C@@H]1COP(=O)(OCOC(=O)OC(C)C)OCOC(=O)OC(C)C` [Compound 17, (2R,3R,4R,5R)-2-(4-aminopyrrolo[2,1-f][1,2,4]triazin-7-yl)-5-((((bis(((isopropoxycarbonyl)oxy)methoxy)phosphoryl))oxy)methyl)-2-cyanotetrahydrofuran-3,4-diyl diacetate] here?
Its EC50 is 100 to 200 nM.

For `CC(C)OC(=O)OCOP(=O)(OCOC(=O)OC(C)C)OC[C@H]1O[C@@](C#N)(c2ccc3c(N)ncnn23)[C@H](OC(=O)C(C)C)[C@@H]1OC(=O)C(C)C` [Compound 19, (2R,3R,4R,5R)-2-(4-aminopyrrolo[2,1-f][1,2,4]triazin-7-yl)-5-((((bis(((isopropoxycarbonyl)oxy)methoxy))phosphoryl)oxy)methyl)-2-cyanotetrahydrofuran-3,4-diyl bis(2-methylpropionate)], which EC50 is on record?
Its EC50 is 200 to 500 nM.

How did the EC50 turn out when `CC(C)OC(=O)OCOP(=O)(OCOC(=O)OC(C)C)OC[C@H]1O[C@@](C#N)(c2ccc3c(N)ncnn23)[C@H](OC(=O)C(C)(C)C)[C@@H]1OC(=O)C(C)(C)C` [Compound 20, (2R,3R,4R,5R)-2-(4-aminopyrrolo[2,1-f][1,2,4]triazin-7-yl)-5-((((bis(((isopropoxycarbonyl)oxy)methoxy))phosphoryl)oxy)methyl)-2-cyanotetrahydrofuran-3,4-diyl bis(2,2-dimethylpropionate)] was run?
Its EC50 is > 1000 nM.

With `CC(C)OC(=O)OCO[P@@](=O)(OC[C@H]1O[C@@](C#N)(c2ccc3c(N)ncnn23)[C@H](OC(=O)C(C)C)[C@@H]1OC(=O)C(C)C)Oc1ccc(C(C)(C)C)cc1` [Compound 24a, (2R,3R,4R,5R)-2-(4-aminopyrrolo[2,1-f][1,2,4]triazin-7-yl)-5-((((S)-(4-tert-butylphenoxy)(((isopropoxycarbonyl)oxy)methoxy)phosphoryl)oxy)methyl)-2-cyanotetrahydrofuran-3,4-diyl bis(2-methylpropionate)] as the compound, how does the EC50 read?
The EC50 was > 1000 nM.

With `CC(C)C(=O)O[C@H]1[C@@H](OC(=O)C(C)C)[C@](C#N)(c2ccc3c(N)ncnn23)O[C@@H]1COP(=O)(OCOC(=O)C(C)(C)C)OCOC(=O)C(C)(C)C` [Compound 29, (2R,3R,4R,5R)-2-(4-aminopyrrolo[2,1-f][1,2,4]triazin-7-yl)-5-((((bis(((tert-butylcarbonyl)oxy)methoxy))phosphoryl)oxy)methyl)-2-cyanotetrahydrofuran-3,4-diyl bis(2-methylpropionate)] as the compound, how does the EC50 read?
The EC50 was 500 to 1000 nM.

With `CC(C)C(=O)O[C@H]1[C@@H](OC(=O)C(C)C)[C@](C#N)(c2ccc3c(N)ncnn23)O[C@@H]1COP(=O)(OCCSC(=O)C(C)(C)C)OCCSC(=O)C(C)(C)C` [Compound 30, (2R,3R,4R,5R)-2-(4-aminopyrrolo[2,1-f][1,2,4]triazin-7-yl)-5-((((bis(2-(pivaloylthio)ethoxy))phosphoryl)oxy)methyl)-2-cyanotetrahydrofuran-3,4-diyl bis(2-methylpropionate)] as the compound, how does the EC50 read?
The EC50 was 200 to 500 nM.

Which EC50 does the source give for `CCC(CC)COC(=O)[C@H](Cc1ccccc1)N[P@@](=O)(OCOC(=O)OC(C)C)OC[C@H]1O[C@@](C#N)(c2ccc3c(N)ncnn23)[C@H](OC(=O)C(C)C)[C@@H]1OC(=O)C(C)C` [Compound 31b, (2R,3R,4R,5R)-2-(4-aminopyrrolo[2,1-f][1,2,4]triazin-7-yl)-2-cyano-5-((((S)-(((S)-1-(2-ethylbutoxy)-1-oxo-3-phenylpropan-2-yl)amino)(((isopropoxycarbonyl)oxy)methoxy)phosphoryl)oxy)methyl)tetrahydrofuran-3,4-diyl bis(2-methylpropionate)] here?
Its EC50 is 200 to 500 nM.

How did the EC50 turn out when `CCC(CC)COC(=O)C1(N[P@@](=O)(OCOC(=O)OC(C)C)OC[C@H]2O[C@@](C#N)(c3ccc4c(N)ncnn34)[C@H](OC(=O)C(C)C)[C@@H]2OC(=O)C(C)C)CCC1` [Compound 32b, (2R,3R,4R,5R)-2-(4-aminopyrrolo[2,1-f][1,2,4]triazin-7-yl)-2-cyano-5-((((S)-((1-((2-ethylbutoxy)carbonyl)cyclobutyl)amino)(((isopropoxycarbonyl)oxy)methoxy)phosphoryl)oxy)methyl)tetrahydrofuran-3,4-diyl bis(2-methylpropionate)] was run?
Its EC50 is 500 to 1000 nM.

Which EC50 does the source give for `CCCCCOC(=O)C[C@H](N[P@](=O)(OC[C@H]1O[C@@](C#N)(c2ccc3c(N)ncnn23)[C@H](OC(=O)C(C)C)[C@@H]1OC(=O)C(C)C)Oc1ccccc1)C(=O)OCCCCC` [Compound 38b, (2R,3R,4R,5R)-2-(4-aminopyrrolo[2,1-f][1,2,4]triazin-7-yl)-2-cyano-5-((((S)-(((S)-1,4-dipentyloxy-1,4-dioxobutan-2-yl)amino)(phenoxy)phosphoryl)oxy)methyl)tetrahydrofuran-3,4-diyl bis(2-methylpropionate)] here?
Its EC50 is < 100 nM.

With `CCCCCOC(=O)C[C@H](N[P@@](=O)(OC[C@H]1O[C@@](C#N)(c2ccc3c(N)ncnn23)[C@H](OC(=O)C(C)C)[C@@H]1OC(=O)C(C)C)Oc1ccc(C(C)(C)C)cc1)C(=O)OCCCCC` [Compound 39a, (2R,3R,4R,5R)-2-(4-aminopyrrolo[2,1-f][1,2,4]triazin-7-yl)-2-cyano-5-((((R)-(((S)-1,4-dipentyloxy-1,4-dioxobutan-2-yl)amino)(4-tert-butylphenoxy)phosphoryl)oxy)methyl)tetrahydrofuran-3,4-diyl bis(2-methylpropionate)] as the compound, how does the EC50 read?
The EC50 was < 100 nM.

Which EC50 does the source give for `CCCCCOC(=O)C[C@H](N[P@](=O)(OC[C@H]1O[C@@](C#N)(c2ccc3c(N)ncnn23)[C@H](OC(=O)C(C)C)[C@@H]1OC(=O)C(C)C)Oc1ccc(C(C)(C)C)cc1)C(=O)OCCCCC` [Compound 39b, (2R,3R,4R,5R)-2-(4-aminopyrrolo[2,1-f][1,2,4]triazin-7-yl)-2-cyano-5-((((S)-(((S)-1,4-dipentyloxy-1,4-dioxobutan-2-yl)amino)(4-tert-butylphenoxy)phosphoryl)oxy)methyl)tetrahydrofuran-3,4-diyl bis(2-methylpropionate)] here?
The EC50 was < 100 nM.
